Measured values as given in ChEMBL document CHEMBL4256943, “Inhibitors of cyp17a1” (2016).

Organism: Homo sapiens
Assay: Selectivity factor, ratio of IC50 for human membrane bound C-terminal His4-tagged CYP21A2delta19H mutant to IC50 for human membrane bound C-terminal His4-tagged CYP17A1delta19H mutant

With `C[C@]12CC[C@H](O)C[C@@H]1/C(=N/O)C[C@@H]1[C@@H]2CC[C@]2(C)C(c3cccnc3)=CC[C@@H]12` the Ratio IC50 was 68.9.
